Reference: ChEMBL document CHEMBL1149727, “Sesquiterpenes from clove (Eugenia caryophyllata) as potential anticarcinogenic agents” (1992)

Tests used:
Mus musculus [1] = test: Induction of cytosolic Glutathione S-transferase activity per mg of protein in A/J mouse liver at 20 mg, po for once every 2 days for total three doses measured after 24 hrs of last dose; assay type: functional
Mus musculus [2] = test: Induction of cytosolic Glutathione S-transferase activity per mg of protein in A/J mouse forestomach at 20 mg, po for once every 2 days for total three doses measured after 24 hrs of last dose; assay type: functional, Stomach
Mus musculus [3] = test: Induction of cytosolic Glutathione S-transferase activity per mg of protein in A/J mouse small bowel mucosa at 20 mg, po for once every 2 days for total three doses measured after 24 hrs of last dose; assay type: functional
Mus musculus [4] = test: Ratio of drug to control in induction of cytosolic Glutathione S-transferase activity per mg of protein in A/J mouse forestomach at 20 mg, po for once every 2 days for total three doses measured after 24 hrs of last dose; assay type: functional, Stomach
Mus musculus [5] = test: Ratio of drug to control in induction of cytosolic Glutathione S-transferase activity per mg of protein in A/J mouse liver at 20 mg, po for once every 2 days for total three doses measured after 24 hrs of last dose; assay type: functional
Mus musculus [6] = test: Ratio of drug to control in induction of cytosolic Glutathione S-transferase activity per mg of protein in A/J mouse small bowel mucosa at 20 mg, po for once every 2 days for total three doses measured after 24 hrs of last dose; assay type: functional

Structure (SMILES) | Activity (Mus musculus [1]) [µmol/min] | Activity (Mus musculus [2]) [µmol/min] | Activity (Mus musculus [3]) [µmol/min] | Ratio (Mus musculus [4]) | Ratio (Mus musculus [5]) | Ratio (Mus musculus [6])
C=CCc1ccc(O)c(OC)c1 [EUGENOL] | 0.93 | 0.75 | 0.59 | 1.21 | 1.26 | 2.36
C/C1=C\CC/C(C)=C/CC(C)(C)/C=C/C1 [ALPHA-HUMULONE] | 1.47 | 0.63 | 0.63 | 1.02 | 1.99 | 2.52
C/C1=C\CC[C@@]2(C)O[C@@H]2CC(C)(C)/C=C/C1 | 1.54 | 0.77 | 0.81 | 1.24 | 2.08 | 3.24
C=C1CC[C@@H]2O[C@]2(C)CC[C@@H]2[C@@H]1CC2(C)C | 2.13 | 0.59 | 1.2 | 0.95 | 2.88 | 4.8
C=C1CC/C=C(\C)CC[C@@H]2[C@@H]1CC2(C)C [BETA-CARYOPHYLLENE] | 1.92 | 0.77 | 0.75 | 1.24 | 2.59 | 3
